The source of these data is US12122770B1, “2-(benzo[d]oxazol-2-yl)-n'-(nicotinoyloxy)acetimidamide as an antimicrobial compound” (KING FAISAL UNIVERSITY, priority 2023, dated 2024).

Data set [1] has as its system Bacillus Cereus. Kind of data set: Agar plate disc-diffusion, antibacterial activity (inhibition zone). The format is cell-based. As to conditions: Gram positive, DMSO zone subtracted; for inhibition zone, Bacillus Cereus, A: A = concentration of comp. = 10,000 μL; for inhibition zone, Bacillus Cereus, B: B = concentration of comp. = 30,000 μL; for inhibition zone, Bacillus Cereus, C: C = concentration of comp. = 50,000 μL. How it is done: (§1) The agar plate disc-diffusion method was applied. […] The discs were then placed onto the surface of agar plates (nutrient agar for bacteria and Sabouraud's dextrose agar for fungi) seeded with the test organism. Each plate contained 15 mL of the agar medium, previously seeded with 0.2 mL of the broth culture of each organism pregrown for 18 hours. The plates were incubated at 37° C. for 48 hours, and 72 hours for fungi. The inhibition zones was measured in mm. Discs impregnated with DMSO were used as a control, and its inhibition zone was subtracted from the tested compound actual inhibition zone.
In general terms: In agar diffusion tests the substance spreads into inoculated agar from a disc or well.

Data set [2] relates to Escherichia coli. The data set is described as above. It counts as cell-based. As to conditions: Gram negative, DMSO zone subtracted; for inhibition zone, Escherichia coli, A: A = concentration of comp. = 10,000 μL; for inhibition zone, Escherichia coli, B: B = concentration of comp. = 30,000 μL; for inhibition zone, Escherichia coli, C: C = concentration of comp. = 50,000 μL. As for the experimental part:
as §1

For data set [3], the system named is Pseudomonas aeruginosa. The data set is described as above. It counts as cell-based. As to conditions: Gram negative, DMSO zone subtracted; for inhibition zone, Pseudomonas aeruginosa, A: A = concentration of comp. = 10,000 μL; for inhibition zone, Pseudomonas aeruginosa, B: B = concentration of comp. = 30,000 μL; for inhibition zone, Pseudomonas aeruginosa, C: C = concentration of comp. = 50,000 μL. How it is done: as §1

Data set [4] concerns Staphylococcus aureus. The data set is described as above. As to conditions: Gram positive, DMSO zone subtracted; for inhibition zone, Staphylococcus aureus, A: A = concentration of comp. = 10,000 μL; for inhibition zone, Staphylococcus aureus, B: B = concentration of comp. = 30,000 μL; for inhibition zone, Staphylococcus aureus, C: C = concentration of comp. = 50,000 μL. It counts as cell-based. As for the experimental part:
as §1

In data set [5] the test system is Aspergillus flavus. Kind of data set: Agar plate disc-diffusion, antifungal activity (inhibition zone). As to conditions: fungal, 72 hours, DMSO zone subtracted; for inhibition zone, Aspergillus flavus, A: A = concentration of comp. = 10,000 μL; for inhibition zone, Aspergillus flavus, B: B = concentration of comp. = 30,000 μL; for inhibition zone, Aspergillus flavus, C: C = concentration of comp. = 50,000 μL. It counts as cell-based. As for the experimental part: as §1

The subject of data set [6] is Chrysosporium keratinophilum. The data set is described as above. The format is cell-based. As to conditions: fungal, 72 hours, DMSO zone subtracted; for inhibition zone, Chrysosporium keratinophilum, A: A = concentration of comp. = 10,000 μL; for inhibition zone, Chrysosporium keratinophilum, B: B = concentration of comp. = 30,000 μL; for inhibition zone, Chrysosporium keratinophilum, C: C = concentration of comp. = 50,000 μL. How it is done:
as §1

On to `O=C(O)c1cn(C2CC2)c2cc(N3CCNCC3)c(F)cc2c1=O` [Cip., ciprofloxacin, reference compound], for which, in data set [1], the “inhibition zone, Bacillus Cereus, A” value came out at 29 mm; the “inhibition zone, Bacillus Cereus, B” value came out at 31 mm; the “inhibition zone, Bacillus Cereus, C” value stood at 42 mm. Moreover, in data set [2], the “inhibition zone, Escherichia coli, A” value worked out at 30 mm; the “inhibition zone, Escherichia coli, B” value was 39 mm; the “inhibition zone, Escherichia coli, C” value was determined as 60 mm. In data set [3], the “inhibition zone, Pseudomonas aeruginosa, A” value was 29 mm; the “inhibition zone, Pseudomonas aeruginosa, B” value is on record as 30 mm; the “inhibition zone, Pseudomonas aeruginosa, C” value is recorded as 53 mm. In addition, in data set [4], the “inhibition zone, Staphylococcus aureus, A” value is given as 43 mm; the “inhibition zone, Staphylococcus aureus, B” value is given as 44 mm; the “inhibition zone, Staphylococcus aureus, C” value is listed as 53 mm. Further, in data set [5], the “inhibition zone, Aspergillus flavus, A” value was determined as 28 mm; the “inhibition zone, Aspergillus flavus, B” value is reported as 31 mm; the “inhibition zone, Aspergillus flavus, C” value is 43 mm. In data set [6], the “inhibition zone, Chrysosporium keratinophilum, A” value is reported as 30 mm; the “inhibition zone, Chrysosporium keratinophilum, B” value is reported as 33 mm; the “inhibition zone, Chrysosporium keratinophilum, C” value is given as 55 mm.

Consider `N/C(Cc1nc2ccccc2o1)=N\OC(=O)c1cccnc1` [compound 3, 2-(benzo[d]oxazol-2-yl)-N′-(nicotinoyloxy)acetimidamide], for which the melting point lay within 155 to 156 °C. In data set [1], the “inhibition zone, Bacillus Cereus, A” value is 26 mm; the “inhibition zone, Bacillus Cereus, B” value stood at 29 mm; the “inhibition zone, Bacillus Cereus, C” value turned out to be 37 mm. Also, in data set [2], the “inhibition zone, Escherichia coli, A” value worked out at 26 mm; the “inhibition zone, Escherichia coli, B” value is 33 mm; the “inhibition zone, Escherichia coli, C” value turned out to be 47 mm. In data set [3], the “inhibition zone, Pseudomonas aeruginosa, A” value worked out at 23 mm; the “inhibition zone, Pseudomonas aeruginosa, B” value came out at 25 mm; the “inhibition zone, Pseudomonas aeruginosa, C” value was 40 mm. In data set [4], the “inhibition zone, Staphylococcus aureus, A” value is on record as 28 mm; the “inhibition zone, Staphylococcus aureus, B” value amounted to 31 mm; the “inhibition zone, Staphylococcus aureus, C” value is recorded as 40 mm. Moreover, in data set [5], the “inhibition zone, Aspergillus flavus, A” value came to 21 mm; the “inhibition zone, Aspergillus flavus, B” value was 24 mm; the “inhibition zone, Aspergillus flavus, C” value is 32 mm. In addition, in data set [6], the “inhibition zone, Chrysosporium keratinophilum, A” value amounted to 26 mm; the “inhibition zone, Chrysosporium keratinophilum, B” value is 29 mm; the “inhibition zone, Chrysosporium keratinophilum, C” value is recorded as 48 mm.

In general, melting point refers to the temperature of the solid-liquid transition.
